ChEMBL document CHEMBL1201862, “PubChem BioAssay data set” (2004)
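How tested: cells in 96-well plates exposed to compound for 48 hours at five concentrations. GI50 marks 50% less growth.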 Calls of active or inactive are those of the source. Rule as the data show it: active = GI50 up to about 1.1 µM and inactive = higher.

Key:
Assay in all cases: NCI tumour cell line growth inhibition, 48 h
[1] = system: 786-0
[2] = system: HCT-15
[3] = system: HL-60
[4] = system: Hs-578T
[5] = system: IGROV-1
[6] = system: K562
[7] = system: Malme-3M
[8] = system: NCI-H226
[9] = system: PC-3
[10] = system: RPMI-8226
[11] = system: SF-539
[12] = system: SK-OV-3
[13] = system: SN12C
[14] = system: SNB-19
[15] = system: SW-620
[16] = system: T47D
[17] = system: UACC-257
[18] = system: UACC-62
[19] = system: UO-31
[20] = system: HOP-92

SMILES | GI50 [1] | GI50 [2] [µM] | GI50 [3] | GI50 [4] | GI50 [5] | GI50 [6] | GI50 [7] | GI50 [8] | GI50 [9] | GI50 [10] | GI50 [11] | GI50 [12] | GI50 [13] | GI50 [14] | GI50 [15] | GI50 [16] | GI50 [17] | GI50 [18] | GI50 [19] | GI50 [20]
CC(N/N=C(\S)N1CCCC1)c1cccnn1 (stereo unspecified) | 0.452 µM (active) | 0.443 | 0.361 µM (active) | 9.53 µM (inactive) | 0.43 µM (active) | 0.632 µM (active) | 0.849 µM (active) | 1.13 µM (inactive) | 0.375 µM (active) | 0.434 µM (active) | 0.215 µM (active) | 0.337 µM (active) | 0.778 µM (active) | 0.513 µM (active) | 0.579 µM (active) | 0.553 µM (active) | 0.267 µM (active) | 0.414 µM (active) | 0.741 µM (active) | 
O=C(O)c1ccc([N+](=O)[O-])c(P(=O)(O)O)c1 | > 100 µM (inactive) | > 100 | > 100 µM (inactive) |  | > 100 µM (inactive) | > 100 µM (inactive) |  | > 100 µM (inactive) | > 100 µM (inactive) | > 100 µM (inactive) | > 100 µM (inactive) | > 100 µM (inactive) | > 100 µM (inactive) | > 100 µM (inactive) | > 100 µM (inactive) | > 100 µM (inactive) | > 100 µM (inactive) | > 100 µM (inactive) | > 100 µM (inactive) | > 100 µM (inactive)
Cc1ccc(/C(O)=C/c2nc3ccccc3oc2=O)cc1 | 85.3 µM (inactive) | 92.7 |  | 46.9 µM (inactive) | > 100 µM (inactive) | 27.4 µM (inactive) | 34.1 µM (inactive) | > 100 µM (inactive) | 50.1 µM (inactive) |  | > 100 µM (inactive) |  | > 100 µM (inactive) | > 100 µM (inactive) |  | 77.6 µM (inactive) | > 100 µM (inactive) | 37.7 µM (inactive) | 40.1 µM (inactive) | 
C=CCOCn1cnc2c(N)ncnc21 | > 100 µM (inactive) | > 100 | > 100 µM (inactive) | > 100 µM (inactive) | > 100 µM (inactive) | > 100 µM (inactive) | > 100 µM (inactive) | > 100 µM (inactive) | > 100 µM (inactive) | > 100 µM (inactive) | > 100 µM (inactive) | > 100 µM (inactive) | > 100 µM (inactive) | > 100 µM (inactive) | > 100 µM (inactive) | > 100 µM (inactive) | > 100 µM (inactive) | > 100 µM (inactive) | > 100 µM (inactive) | 
Cc1ccc(/N=C2\C(=N/c3ccc(C)cc3)N(c3ccc(C)cc3)C(=S)N2C(=O)c2ccccc2)cc1 | > 100 µM (inactive) | > 100 |  | > 100 µM (inactive) | > 100 µM (inactive) | > 100 µM (inactive) | > 100 µM (inactive) | > 100 µM (inactive) | > 100 µM (inactive) | > 100 µM (inactive) | > 100 µM (inactive) | > 100 µM (inactive) | > 100 µM (inactive) | > 100 µM (inactive) | > 100 µM (inactive) | > 100 µM (inactive) | > 10 µM (inactive) | > 100 µM (inactive) | > 100 µM (inactive) | > 100 µM (inactive)
C[C@]12CC[C@H](O)CC1=CC[C@@H]1C2CC[C@]2(C)c3nn(-c4ccc(F)cc4)nc3CC12 (stereo partly specified) | 45.3 µM (inactive) |  | 17.5 µM (inactive) | 39.3 µM (inactive) | > 100 µM (inactive) | 4.51 µM (inactive) | 74 µM (inactive) | 44.2 µM (inactive) | 52.2 µM (inactive) |  | 18.2 µM (inactive) | 39.4 µM (inactive) | 71 µM (inactive) | 73.3 µM (inactive) | > 100 µM (inactive) | 24.4 µM (inactive) | 46.8 µM (inactive) | 43.7 µM (inactive) | 81.1 µM (inactive) | > 100 µM (inactive)
C=CCCCCCCCCC(=O)ON(Cc1ccc(O)c(OC)c1)C(=O)C(F)(F)F | > 100 µM (inactive) | > 100 | 12.4 µM (inactive) | 10.8 µM (inactive) | > 100 µM (inactive) | 75 µM (inactive) | > 100 µM (inactive) | 21.4 µM (inactive) |  | > 100 µM (inactive) | > 100 µM (inactive) | > 100 µM (inactive) | > 100 µM (inactive) | > 100 µM (inactive) | > 100 µM (inactive) | 72.1 µM (inactive) | > 100 µM (inactive) | 49 µM (inactive) | 10.9 µM (inactive) | 34.2 µM (inactive)
c1ccc(Cc2cc(-c3ccccc3)[nH]n2)cc1 | 17 µM (inactive) | 18.5 | 16.9 µM (inactive) | 15.3 µM (inactive) | 18.1 µM (inactive) | 13 µM (inactive) |  | 12.5 µM (inactive) | 15.8 µM (inactive) |  |  | 32.4 µM (inactive) | 13.5 µM (inactive) | 23.2 µM (inactive) | 14.6 µM (inactive) | 33.3 µM (inactive) | 13.3 µM (inactive) | 14.4 µM (inactive) | 21.8 µM (inactive) | 
CC(O)(/C=C/c1ccccc1)P(=O)(O)c1ccccc1 (stereo unspecified) | > 100 µM (inactive) | > 100 | > 100 µM (inactive) | > 100 µM (inactive) | > 100 µM (inactive) | > 100 µM (inactive) | > 100 µM (inactive) | > 100 µM (inactive) | > 100 µM (inactive) |  | > 100 µM (inactive) | > 100 µM (inactive) | > 100 µM (inactive) | > 100 µM (inactive) | > 100 µM (inactive) | > 100 µM (inactive) | > 100 µM (inactive) | > 100 µM (inactive) |  | > 100 µM (inactive)
NC(Cc1c[nH]c2cc([N+](=O)[O-])ccc12)C(=O)O (stereo unspecified) | > 100 µM (inactive) | > 100 |  | > 100 µM (inactive) | 57.4 µM (inactive) | > 100 µM (inactive) | > 100 µM (inactive) | 33.7 µM (inactive) | > 100 µM (inactive) | > 100 µM (inactive) | > 100 µM (inactive) | > 100 µM (inactive) | > 100 µM (inactive) | > 100 µM (inactive) | > 100 µM (inactive) | > 100 µM (inactive) | > 100 µM (inactive) | > 100 µM (inactive) | > 100 µM (inactive) | 67.6 µM (inactive)
COc1cc2c(cc1OCCCC(=O)Nc1cc(C(=O)Nc3cc(C(=O)NCCCN(C)C)n(C)n3)n(C)n1)N=CC1CCCN1C2=O (stereo unspecified) | 16.3 µM (inactive) | 16.1 | 15.2 µM (inactive) |  | 12.8 µM (inactive) | 14.6 µM (inactive) | 17.2 µM (inactive) | 44.4 µM (inactive) | 31.8 µM (inactive) | 18.5 µM (inactive) | 21.7 µM (inactive) | 57.3 µM (inactive) | 16.1 µM (inactive) | 12.6 µM (inactive) | 15.2 µM (inactive) | 14.2 µM (inactive) | 17.8 µM (inactive) | 20.1 µM (inactive) | 16.7 µM (inactive) | 19.1 µM (inactive)
O=C(c1ccc(/N=C/c2ccccc2O)cc1)c1ccc(/N=C/c2ccccc2O)cc1 | > 100 µM (inactive) | > 100 | > 100 µM (inactive) |  | > 100 µM (inactive) | > 100 µM (inactive) | > 100 µM (inactive) | > 100 µM (inactive) | > 100 µM (inactive) | > 100 µM (inactive) | > 100 µM (inactive) | > 100 µM (inactive) |  | > 100 µM (inactive) | > 100 µM (inactive) | 62.8 µM (inactive) |  | > 100 µM (inactive) | > 100 µM (inactive) | > 100 µM (inactive)
O=C1C(C(c2ccc([N+](=O)[O-])cc2)N2CCOCC2)=C(O)C(c2ccccc2)N1c1ccccc1 (stereo unspecified) | > 10 µM (inactive) | > 10 | > 10 µM (inactive) | > 10 µM (inactive) | > 10 µM (inactive) | > 10 µM (inactive) | > 10 µM (inactive) | > 10 µM (inactive) | > 10 µM (inactive) | > 10 µM (inactive) | > 10 µM (inactive) | > 10 µM (inactive) | > 10 µM (inactive) | > 10 µM (inactive) | > 10 µM (inactive) | > 10 µM (inactive) | > 10 µM (inactive) | > 10 µM (inactive) | > 10 µM (inactive) | 
COC(=O)C1=C2SCc3ccc(cc3)CSC3=C(C(=O)OC)SC(=C(S2)S1)S3 | 96.6 µM (inactive) |  | 0.253 µM (active) |  |  | 43.6 µM (inactive) |  | > 100 µM (inactive) | > 100 µM (inactive) | 33 µM (inactive) |  | > 100 µM (inactive) | > 100 µM (inactive) | > 100 µM (inactive) | > 100 µM (inactive) | > 100 µM (inactive) | > 100 µM (inactive) | > 100 µM (inactive) | > 100 µM (inactive) | 
C=C1C(=O)[C@]23C[C@H]1C[C@@H](O)[C@H]2[C@]1(COC3=O)[C@@H](OC(C)=O)CC[C@@](C)(COC(C)=O)[C@H]1C=O [LOXOTHYRIN A] | 36.4 µM (inactive) | > 50 | 8.59 µM (inactive) | 3.97 µM (inactive) | > 50 µM (inactive) | 6.97 µM (inactive) | 11.4 µM (inactive) | 9.57 µM (inactive) | > 50 µM (inactive) |  |  |  | > 50 µM (inactive) | > 50 µM (inactive) | 9.29 µM (inactive) | 11.7 µM (inactive) | > 50 µM (inactive) | > 50 µM (inactive) | > 50 µM (inactive) | 10.2 µM (inactive)
